US6514970B1, “Urotensin-II receptor antagonists” (SmithKline Beecham Corporation, priority 1999, dated 2003)

Legend:
[1] = test system: human and rat GPR-14; experiment: Radioligand binding ([125I] h-U-II, HEK-293 cell membranes); details: [125I] h-U-II binding to HEK-293 membranes with cloned GPR-14; species not given
Procedure: HEK-293 cell membranes containing stable cloned human and rat GPR-14 (20 ug/assay) were incubated with 200 pM [125I] h-U-II (200 Ci/mmol^−1 in the presence of increasing concentrations of test compounds in DMSO (0.1 nM to 10 uM), in a final incubation volume of 200 ul (20 mM Tris-HCl, 5 mM MgCl2). Incubation was done for 30 minutes at room temperature followed by filtration GF/B filters with Brandel cell harvester. ^125I labeled U-II binding was quantitated by gamma counting. Nonspecific binding was defined by ^125I U-II binding in the presence of 100 nM of unlabeled human U-II. Analysis of the data was performed by nonlinear least square fitting.

[2] = test system: rat-isolated aorta; details: cited from earlier work

Row | Compound | Ki [1] [nM] | contractile activity [2]
1 | CN(C)CCCOc1ccc(CN2CC[C@H](NC(=O)[C@H](Cc3ccccc3)NC(=O)c3ccc(Br)cc3)C2)cc1 [Example 15] | 390 | –
2 | CC(C)[C@H](NC(=O)[C@@H]1CSSC[C@H](NC(=O)[C@H](CC(=O)O)NC(=O)[C@@H]2CCCN2C(=O)[C@@H](NC(=O)[C@@H](N)CCC(=O)O)[C@@H](C)O)C(=O)N[C@@H](Cc2ccccc2)C(=O)N[C@@H](Cc2c[nH]c3ccccc23)C(=O)N[C@@H](CCCCN)C(=O)N[C@@H](Cc2ccc(O)cc2)C(=O)N1)C(=O)O [Human Urotensin-II] | – | most potent contractile agonist identified to date
